The results in this text go back to ChEMBL document CHEMBL5728816, “Thienopyridine inhibitors of RIPK2” (2021).

The experiment has as its target Receptor-interacting serine/threonine-protein kinase 2 (Homo sapiens, UniProt O43353). Put plainly: TR-FRET Assay: All data was collected using a standard TR-FRET screening assay: LanthaScreen Tracer 199 at 50 nM, Eu-anti-His Antibody at 2 nM, 5 nM RIPK2 enzyme, and 1× Kinase Reaction Buffer. There was a 1 hour incubation prior to read. TR-FRET signal of the interaction (340Ex/665Em/615Em) was read at room temperature with standard setting. Background was subtracted of wells containing no enzyme. Percent inhibition was based on uninhibited controls log (inhibitor) vs. response. Variable slope equation was used with no constraints: Log Y=Bottom+(Top−Bottom)/(1+10^((Log IC50−X)*Hill Slope)).Analytical Instrumentation:NMR: Bruker UltraShield™-300 or Bruker Ascend™-400 spectrometers.LCMS: Shimadzu LCMS-2020 or Agilent technologies 1260 Infinity-6120 Quadrupole LC/MS.Purification:TLC plates: Thin-layer chromatography with E. Merck silica gel 60 F254 pre-coated plates (0.25 mm).Flash chromatography: Agela Technologies CHEETAH-MP200 CH16200 2T-A0099 or Biotage Isolera ISO-PSV ISPS 1832112.

SMILES strings stand for the structures.

Sequence of Receptor-interacting serine/threonine-protein kinase 2 (O43353 whole entry): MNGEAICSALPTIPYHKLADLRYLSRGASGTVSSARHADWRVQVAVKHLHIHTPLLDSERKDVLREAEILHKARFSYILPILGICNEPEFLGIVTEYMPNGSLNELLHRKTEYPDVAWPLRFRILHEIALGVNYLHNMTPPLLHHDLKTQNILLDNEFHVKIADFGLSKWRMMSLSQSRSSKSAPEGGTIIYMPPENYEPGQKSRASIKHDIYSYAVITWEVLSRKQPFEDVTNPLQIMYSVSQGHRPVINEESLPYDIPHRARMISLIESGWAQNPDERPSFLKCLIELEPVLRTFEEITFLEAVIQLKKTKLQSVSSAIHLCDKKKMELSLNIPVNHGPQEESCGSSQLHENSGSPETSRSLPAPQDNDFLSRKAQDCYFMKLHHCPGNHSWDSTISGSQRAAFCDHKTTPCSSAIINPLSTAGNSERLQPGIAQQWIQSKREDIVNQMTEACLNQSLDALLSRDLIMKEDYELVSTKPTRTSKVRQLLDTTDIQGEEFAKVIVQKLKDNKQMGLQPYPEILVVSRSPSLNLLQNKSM

Turning to `C[C@@H]1[C@H](c2cc3c(Nc4ccc5scnc5c4F)ccnc3s2)CCCN1C`, the IC50 was below 0.01 µM.
